This is an account of results in ChEMBL document CHEMBL5465560, “Selectivity Literature for EUbOPEN Chemogenomic Library” (2024).

Experiment [1] concerns ALK tyrosine kinase receptor (Homo sapiens), Q9UM73 [R1275Q]. Nature of the experiment: (§1) Selectivity interaction (LanthaScreen Eu Kinase Binding Assay) EUB0001632a ALK. Particulars: at 10 µM.
Experiment [2] relates to ALK tyrosine kinase receptor (Homo sapiens), Q9UM73 [C1156Y]. The experiment is described as §1. Particulars: at 10 µM.
Experiment [3] has as its system ALK tyrosine kinase receptor (Homo sapiens), Q9UM73 [L1196M]. The description is as §1. Conditions: at 10 µM.
In experiment [4] the test system is ALK tyrosine kinase receptor (Homo sapiens), Q9UM73 [F1174L]. Described as §1. Particulars: at 10 µM.
For experiment [5], the target named is Dual specificity protein kinase CLK4 (Homo sapiens, UniProt Q9HAZ1). The experiment in a line: Selectivity interaction (KinomeScan (DiscoverX)) EUB0000595a CLK4. Particulars: at 10 µM.
Experiment [6] addresses SRSF protein kinase 2 (Homo sapiens) (UniProt P78362). Conditions: at 10 µM.
Experiment [7] has as its target Homeodomain-interacting protein kinase 1 (Homo sapiens, UniProt Q86Z02). Nature of the experiment: Selectivity interaction (KinomeScan (DiscoverX)) EUB0000666a HIPK1. Conditions: at 10 µM.
For experiment [8], the target named is Tyrosine-protein kinase CSK (Homo sapiens) (UniProt P41240). Nature of the experiment: Selectivity interaction (ActivX KiNativ screen (kinase selectivity in THP-1 cell lysates)) EUB0000639a CSK. The class given is subcellular. Conditions: lysate, at 0.01 µM.
Experiment [9] deals with Tyrosine-protein kinase Blk (Homo sapiens) (UniProt P51451). The experiment in a line: Selectivity interaction (Kinase panel (Invitrogen)) EUB0000639a BLK. Particulars: at 200 nM.
For experiment [10], the target named is Vascular endothelial growth factor receptor 2 (Homo sapiens, UniProt P35968). The experiment in a line: Selectivity interaction (Ambit KINOMEscan and KiNATiv profiling in Jurkat cells) EUB0000090b KDR. Type of experiment: cell-based. Particulars: at 1 µM.
Experiment [11] concerns the target T1, Serine/threonine-protein kinase TAO3 (Homo sapiens) (UniProt Q9H2K8).
T1 sequence (whole entry): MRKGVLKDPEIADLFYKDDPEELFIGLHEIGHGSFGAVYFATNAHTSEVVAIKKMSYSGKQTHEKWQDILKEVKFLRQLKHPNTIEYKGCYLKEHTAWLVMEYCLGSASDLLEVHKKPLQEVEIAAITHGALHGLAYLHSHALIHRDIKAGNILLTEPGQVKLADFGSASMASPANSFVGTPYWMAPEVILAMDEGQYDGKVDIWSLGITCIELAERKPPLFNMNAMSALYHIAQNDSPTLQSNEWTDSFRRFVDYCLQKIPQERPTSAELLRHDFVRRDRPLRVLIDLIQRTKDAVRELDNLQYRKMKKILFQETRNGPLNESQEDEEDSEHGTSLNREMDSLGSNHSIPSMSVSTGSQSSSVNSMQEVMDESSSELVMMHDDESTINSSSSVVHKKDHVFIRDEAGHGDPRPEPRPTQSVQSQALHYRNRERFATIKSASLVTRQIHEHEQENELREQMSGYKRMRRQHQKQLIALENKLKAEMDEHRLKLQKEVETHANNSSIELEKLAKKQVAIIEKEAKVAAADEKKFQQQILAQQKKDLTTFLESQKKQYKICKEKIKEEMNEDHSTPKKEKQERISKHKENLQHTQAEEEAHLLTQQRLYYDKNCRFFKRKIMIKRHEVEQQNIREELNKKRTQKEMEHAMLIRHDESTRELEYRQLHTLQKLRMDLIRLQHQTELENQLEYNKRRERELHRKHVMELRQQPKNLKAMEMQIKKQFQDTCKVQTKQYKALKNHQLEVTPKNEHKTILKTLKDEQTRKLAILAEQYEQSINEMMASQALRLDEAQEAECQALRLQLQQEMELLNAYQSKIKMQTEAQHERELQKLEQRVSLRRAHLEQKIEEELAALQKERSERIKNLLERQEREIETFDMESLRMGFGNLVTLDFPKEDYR
Nature of the experiment: Selectivity interaction (KinomeScan (DiscoverX)) EUB0000618a TAOK3. Particulars: at 10 µM.

Experiment [12] concerns the target T2, Serine/threonine-protein kinase 3 (Homo sapiens) (UniProt Q13188).
T2 sequence (whole entry): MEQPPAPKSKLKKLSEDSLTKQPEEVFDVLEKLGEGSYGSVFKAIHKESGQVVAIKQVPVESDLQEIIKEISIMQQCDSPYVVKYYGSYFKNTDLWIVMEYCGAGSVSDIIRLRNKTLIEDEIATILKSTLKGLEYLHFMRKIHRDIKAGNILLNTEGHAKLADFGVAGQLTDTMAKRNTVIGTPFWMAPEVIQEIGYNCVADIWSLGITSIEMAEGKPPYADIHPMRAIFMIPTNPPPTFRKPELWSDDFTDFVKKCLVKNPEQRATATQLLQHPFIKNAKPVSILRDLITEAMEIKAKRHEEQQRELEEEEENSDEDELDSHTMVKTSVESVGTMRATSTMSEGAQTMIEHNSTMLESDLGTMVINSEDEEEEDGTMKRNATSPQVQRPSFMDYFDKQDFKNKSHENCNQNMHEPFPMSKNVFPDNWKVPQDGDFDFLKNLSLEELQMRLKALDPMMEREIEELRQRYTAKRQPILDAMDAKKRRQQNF
Nature of the experiment: Selectivity interaction (Kinase panel (DSF assay)) EUB0001558a STK3. Background: Differential scanning fluorimetry follows unfolding on heating by fluorescence.

Molecules are shown by their SMILES.

ALK tyrosine kinase receptor (Homo sapiens), Q9UM73 [R1275Q], sequence (Q9UM73 whole entry R1275Q): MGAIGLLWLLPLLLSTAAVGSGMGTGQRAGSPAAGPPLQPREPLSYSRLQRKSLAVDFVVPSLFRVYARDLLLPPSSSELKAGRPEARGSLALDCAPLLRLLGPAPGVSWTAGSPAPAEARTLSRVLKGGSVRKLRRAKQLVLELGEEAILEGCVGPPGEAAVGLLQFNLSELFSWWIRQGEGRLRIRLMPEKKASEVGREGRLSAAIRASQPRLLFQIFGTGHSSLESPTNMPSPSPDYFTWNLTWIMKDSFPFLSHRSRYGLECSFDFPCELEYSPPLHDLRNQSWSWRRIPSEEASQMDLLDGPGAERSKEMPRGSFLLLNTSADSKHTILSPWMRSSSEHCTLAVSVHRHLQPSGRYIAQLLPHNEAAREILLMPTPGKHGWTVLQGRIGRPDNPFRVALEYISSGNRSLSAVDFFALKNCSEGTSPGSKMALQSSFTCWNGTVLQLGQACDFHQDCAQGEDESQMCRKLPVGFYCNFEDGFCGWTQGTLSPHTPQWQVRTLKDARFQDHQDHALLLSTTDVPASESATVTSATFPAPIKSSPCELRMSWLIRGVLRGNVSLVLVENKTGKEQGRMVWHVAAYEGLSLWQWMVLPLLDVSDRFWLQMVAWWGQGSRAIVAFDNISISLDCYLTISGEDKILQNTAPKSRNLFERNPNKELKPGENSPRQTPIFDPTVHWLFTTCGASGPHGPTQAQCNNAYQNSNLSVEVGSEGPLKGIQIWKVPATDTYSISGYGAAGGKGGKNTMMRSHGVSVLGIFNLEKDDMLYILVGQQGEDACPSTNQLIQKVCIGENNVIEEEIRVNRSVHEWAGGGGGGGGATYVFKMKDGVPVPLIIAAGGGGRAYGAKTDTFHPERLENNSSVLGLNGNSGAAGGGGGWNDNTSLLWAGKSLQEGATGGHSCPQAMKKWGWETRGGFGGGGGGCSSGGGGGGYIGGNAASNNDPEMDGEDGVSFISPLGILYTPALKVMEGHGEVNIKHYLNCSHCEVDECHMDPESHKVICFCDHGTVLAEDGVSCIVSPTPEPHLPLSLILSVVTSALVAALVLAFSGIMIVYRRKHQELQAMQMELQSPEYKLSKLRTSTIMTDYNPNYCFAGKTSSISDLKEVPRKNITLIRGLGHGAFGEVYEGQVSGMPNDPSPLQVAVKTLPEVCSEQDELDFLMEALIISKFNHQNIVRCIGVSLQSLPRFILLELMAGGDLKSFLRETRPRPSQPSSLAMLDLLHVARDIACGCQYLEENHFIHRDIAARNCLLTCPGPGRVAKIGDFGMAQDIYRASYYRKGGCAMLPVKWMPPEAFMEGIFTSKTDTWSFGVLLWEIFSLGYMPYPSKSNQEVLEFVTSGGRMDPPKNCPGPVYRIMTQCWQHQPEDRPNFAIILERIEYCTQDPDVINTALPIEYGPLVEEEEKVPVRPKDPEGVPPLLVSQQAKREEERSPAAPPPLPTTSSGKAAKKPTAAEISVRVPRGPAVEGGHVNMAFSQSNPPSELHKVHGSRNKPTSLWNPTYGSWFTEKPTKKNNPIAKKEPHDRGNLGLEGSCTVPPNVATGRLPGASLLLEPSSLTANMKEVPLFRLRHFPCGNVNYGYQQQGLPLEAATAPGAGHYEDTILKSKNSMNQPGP
ALK tyrosine kinase receptor (Homo sapiens), Q9UM73 [C1156Y], sequence (Q9UM73 whole entry C1156Y, looked up): as the sequence (Q9UM73 whole entry R1275Q) above, with C1156Y, Q1275R counted along it
Dual specificity protein kinase CLK4, sequence (Q9HAZ1 whole entry, looked up): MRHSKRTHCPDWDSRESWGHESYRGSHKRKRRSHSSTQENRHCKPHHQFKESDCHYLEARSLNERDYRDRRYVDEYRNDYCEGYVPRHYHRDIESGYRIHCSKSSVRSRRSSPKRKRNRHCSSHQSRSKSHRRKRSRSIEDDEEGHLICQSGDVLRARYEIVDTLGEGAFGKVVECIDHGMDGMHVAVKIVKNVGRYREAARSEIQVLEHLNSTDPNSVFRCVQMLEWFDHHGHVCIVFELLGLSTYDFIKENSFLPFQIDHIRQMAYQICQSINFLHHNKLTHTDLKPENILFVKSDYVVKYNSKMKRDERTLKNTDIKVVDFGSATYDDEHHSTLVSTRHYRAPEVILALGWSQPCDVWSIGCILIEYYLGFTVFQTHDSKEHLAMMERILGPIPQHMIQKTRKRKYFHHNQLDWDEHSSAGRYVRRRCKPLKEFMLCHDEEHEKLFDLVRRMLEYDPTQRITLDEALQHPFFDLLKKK
ALK tyrosine kinase receptor (Homo sapiens), Q9UM73 [L1196M], sequence (Q9UM73 whole entry L1196M, looked up): as the sequence (Q9UM73 whole entry R1275Q) above, with L1196M, Q1275R counted along it
Vascular endothelial growth factor receptor 2, sequence (P35968 whole entry): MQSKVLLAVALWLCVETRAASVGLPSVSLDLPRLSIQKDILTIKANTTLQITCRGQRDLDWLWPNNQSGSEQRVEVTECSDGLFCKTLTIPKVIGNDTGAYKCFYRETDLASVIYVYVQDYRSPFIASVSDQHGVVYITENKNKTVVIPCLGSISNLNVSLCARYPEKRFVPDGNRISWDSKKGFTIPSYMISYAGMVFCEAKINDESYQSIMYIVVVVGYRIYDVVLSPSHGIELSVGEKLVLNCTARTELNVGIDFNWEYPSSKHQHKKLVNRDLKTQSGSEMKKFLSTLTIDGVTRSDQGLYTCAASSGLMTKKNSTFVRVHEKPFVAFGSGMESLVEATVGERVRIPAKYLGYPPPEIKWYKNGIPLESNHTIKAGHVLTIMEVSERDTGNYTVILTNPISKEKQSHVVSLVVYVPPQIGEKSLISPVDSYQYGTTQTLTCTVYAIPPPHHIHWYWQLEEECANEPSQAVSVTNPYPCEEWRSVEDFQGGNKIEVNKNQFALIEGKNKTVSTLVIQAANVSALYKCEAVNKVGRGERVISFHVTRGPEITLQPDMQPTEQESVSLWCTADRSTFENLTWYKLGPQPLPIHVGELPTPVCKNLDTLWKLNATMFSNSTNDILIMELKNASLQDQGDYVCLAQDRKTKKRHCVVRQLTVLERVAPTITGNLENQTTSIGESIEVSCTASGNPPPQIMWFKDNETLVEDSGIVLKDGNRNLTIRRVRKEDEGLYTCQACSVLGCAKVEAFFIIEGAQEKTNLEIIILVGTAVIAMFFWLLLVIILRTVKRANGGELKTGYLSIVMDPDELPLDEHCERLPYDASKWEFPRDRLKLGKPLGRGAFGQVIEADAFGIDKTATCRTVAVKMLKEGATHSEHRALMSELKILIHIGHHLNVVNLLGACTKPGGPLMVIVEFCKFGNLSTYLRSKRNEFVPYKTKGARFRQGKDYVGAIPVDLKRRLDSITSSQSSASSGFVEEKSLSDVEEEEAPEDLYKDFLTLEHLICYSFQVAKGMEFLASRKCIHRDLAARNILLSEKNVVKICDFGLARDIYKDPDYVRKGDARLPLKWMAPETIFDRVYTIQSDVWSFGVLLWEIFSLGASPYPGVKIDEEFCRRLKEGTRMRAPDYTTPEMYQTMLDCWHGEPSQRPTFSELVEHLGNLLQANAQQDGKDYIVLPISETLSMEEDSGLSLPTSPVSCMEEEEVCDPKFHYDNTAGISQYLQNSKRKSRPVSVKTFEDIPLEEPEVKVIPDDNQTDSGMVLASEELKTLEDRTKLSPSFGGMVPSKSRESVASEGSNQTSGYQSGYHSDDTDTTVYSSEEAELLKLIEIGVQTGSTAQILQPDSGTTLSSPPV
SRSF protein kinase 2 (Homo sapiens), sequence (P78362 whole entry, looked up): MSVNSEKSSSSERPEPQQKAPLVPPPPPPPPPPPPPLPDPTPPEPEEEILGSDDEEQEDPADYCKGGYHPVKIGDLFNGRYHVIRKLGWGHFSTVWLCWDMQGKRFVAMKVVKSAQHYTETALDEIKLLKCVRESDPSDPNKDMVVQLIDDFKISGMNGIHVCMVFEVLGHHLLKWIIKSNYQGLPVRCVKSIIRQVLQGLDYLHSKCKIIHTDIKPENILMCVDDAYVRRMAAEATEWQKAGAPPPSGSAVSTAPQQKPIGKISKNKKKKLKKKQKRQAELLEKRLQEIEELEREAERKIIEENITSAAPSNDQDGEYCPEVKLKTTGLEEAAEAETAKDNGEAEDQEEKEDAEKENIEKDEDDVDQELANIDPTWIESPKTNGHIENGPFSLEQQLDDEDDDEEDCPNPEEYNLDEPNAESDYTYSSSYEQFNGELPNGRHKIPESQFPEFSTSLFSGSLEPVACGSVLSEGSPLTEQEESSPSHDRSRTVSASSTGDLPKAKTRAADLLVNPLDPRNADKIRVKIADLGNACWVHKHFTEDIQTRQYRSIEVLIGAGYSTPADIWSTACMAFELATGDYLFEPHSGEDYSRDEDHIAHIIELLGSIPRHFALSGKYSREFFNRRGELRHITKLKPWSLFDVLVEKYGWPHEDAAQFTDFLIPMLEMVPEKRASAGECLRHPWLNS
ALK tyrosine kinase receptor (Homo sapiens), Q9UM73 [F1174L], sequence (Q9UM73 whole entry F1174L): as the sequence (Q9UM73 whole entry R1275Q) above, with F1174L, Q1275R counted along it
Tyrosine-protein kinase CSK (Homo sapiens), sequence (P41240 2-450 limits assumed): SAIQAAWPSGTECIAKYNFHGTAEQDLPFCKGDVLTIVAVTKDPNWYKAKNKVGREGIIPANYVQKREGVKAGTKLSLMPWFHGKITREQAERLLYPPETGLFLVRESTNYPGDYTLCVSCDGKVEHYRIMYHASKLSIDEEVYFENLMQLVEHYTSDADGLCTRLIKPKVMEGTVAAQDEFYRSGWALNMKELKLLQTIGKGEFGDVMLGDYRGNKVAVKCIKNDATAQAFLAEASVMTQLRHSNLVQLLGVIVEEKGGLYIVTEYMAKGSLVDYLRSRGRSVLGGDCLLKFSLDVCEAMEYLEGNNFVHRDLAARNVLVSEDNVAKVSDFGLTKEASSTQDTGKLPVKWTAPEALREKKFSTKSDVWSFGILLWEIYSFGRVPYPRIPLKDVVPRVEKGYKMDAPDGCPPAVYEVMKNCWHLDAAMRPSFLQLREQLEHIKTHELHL

Take `Cn1cc(-n2cnc3c(NCc4nc5cc(Cl)c(Cl)cc5[nH]4)nc(N4CCOCC4)nc32)cn1`: the % of inhibition in [1] is -41.1%; in [2], -8.74%; in experiment [3], -25.5%; in experiment [4], -19.4%. `COCC(=O)NC/C=C/c1ccc2ncnc(Nc3ccc(Oc4ccc(C)nc4)c(C)c3)c2c1` [CP-724714] gave a % of control in experiment [5] of 100%. For `CCN(CC)CCCCNc1ncc2cc(-c3cc(OC)cc(OC)c3)c(NC(=O)NC(C)(C)C)nc2n1`, the % of control in experiment [6] was 100%.

The compound `O=C(NOC[C@H](O)CO)c1ccc(F)c(F)c1Nc1ccc(I)cc1F` showed a % of control in experiment [7] of 91%. For `CC[C@@H]1[C@H](F)C(=O)N[C@@H]1COc1nccc2cc(C(N)=O)c(OC)cc12` [ZIMLOVISERTIB], the values for the % of inhibition in [8] and in experiment [9] were 2.3% and 4.04%, respectively. The compound `CN(C)C/C=C/C(=O)Nc1ccc(C(=O)N2CCCC(Nc3ncc(Cl)c(-c4c[nH]c5ccccc45)n3)C2)cc1` (configuration not stated) registered a % of control in [10] of 86%. In turn, `O[C@H]1CC[C@H](Nc2ncc3nc(Nc4c(F)cc(F)cc4F)n([C@H]4CCOC4)c3n2)CC1` came in with a % of control in [11] of 81%. Take `CC(C)(O)[C@H](F)CN1Cc2cc(NC(=O)c3cnn4cccnc34)c(N3CCOCC3)cc2C1=O`: the dTM in experiment [12] is 2.1 K.
